Assay [1] addresses T1, 20S proteasome (Homo sapiens) (UniProt P49721+P20618+P28074+P28062+P28065+P28072+P25786+P25787+P25788+P25789+P28066+P60900+O14818+Q8TAA3+P40306+A5LHX3+P49720+P28070+Q99436). The assay is described as follows: (§1) Activation of human erythrocyte-derived 20s proteosome using CT-L as peptide substrate by fluorescence based analysis. It counts as cell-based. The conditions noted are these: for EC200: filed as activator.

For assay [2], the target named is 20S proteasome. Described as §1. It counts as cell-based.
The target of assay [3] is T1, 20S proteasome (Homo sapiens). The assay is described as follows: (§2) Activation of human erythrocyte-derived 20s proteosome using T-L as peptide substrate by fluorescence based analysis. It is filed as cell-based. Particulars: filed as activator.
The target is the same in assay [4]. The assay is described as follows: Activation of human erythrocyte-derived 20s proteosome using CT-L as peptide substrate at 10 uM by fluorescence based analysis relative to control. It counts as cell-based. The conditions noted are these: filed as activator.
Assay [5] concerns H9c2. The assay is described as follows: Protection against hypoxia-induced cell damage in rat H9c2 cells at 0.025 uM incubated for 14 hrs by MTT assay. It is filed as functional, cell-based. In general terms: Tetrazolium assays rely on reduction of a dye to a coloured formazan, in cell work by metabolically active cells.
Assay [6] relates to H9c2. The assay is described as follows: Upregulation of Ki-67 expression in rat H9c2 cells at 0.25 uM under normoxic condition by qRT-PCR analysis. It counts as functional, cell-based. For orientation: Real-time PCR tracks product formation cycle by cycle.
The test system of assay [7] is H9c2. The assay is described as follows: Upregulation of Ki-67 expression in rat H9c2 cells at 0.25 uM under hypoxic condition by qRT-PCR analysis. It counts as functional, cell-based.
Assay [8] deals with H9c2. The assay is described as follows: Effect on PCNA expression in rat H9c2 cells at 0.25 uM under normoxic condition by qRT-PCR analysis. It counts as functional, cell-based.
For assay [9], the system named is H9c2. The assay is described as follows: Effect on PCNA expression in rat H9c2 cells at 0.25 uM under hypoxic condition by qRT-PCR analysis. It is filed as functional, cell-based.
The subject of a further assay is HEK293. The assay is described as follows: Inhibition of […]-induced ER stress in HEK293 cells harbouring XBP1-delta DBD-Luc cells assessed as decrease in luciferase activity incubated for 8 hrs by […]. Particulars: Homo sapiens, dose 10-20 µM. It is filed as functional, cell-based.
Assay [10] concerns H9c2. The assay is described as follows: Protection against hypoxia-induced cell damage in rat H9c2 cells at 0.05 uM incubated for 14 hrs by MTT assay. It is filed as functional, cell-based.
Assay [11] has as its target 20S proteasome. The description is as §2. It is filed as cell-based.
The target in assay [12] is T1, 20S proteasome (Homo sapiens). The assay is described as follows: (§3) Activation of human erythrocyte-derived 20s proteosome using Casp-L as peptide substrate by fluorescence based analysis. It counts as cell-based. Particulars: filed as activator.
The target in assay [13] is 20S proteasome. Described as §3. It counts as cell-based.
Assay [14] has as its target T1, 20S proteasome (Homo sapiens). The assay is described as follows: Activation of human erythrocyte-derived 20s proteosome assessed as fold maximum enhancement using CT-L as peptide substrate by fluorescence based analysis. It counts as cell-based. Particulars: filed as activator.
Assay [15] has the same target. The assay is described as follows: Activation of human erythrocyte-derived 20s proteosome assessed as fold maximum enhancement using T-L as peptide substrate by fluorescence based analysis. It is filed as cell-based. The conditions noted are these: filed as activator.
Assay [16] has the same target. The assay is described as follows: Activation of human erythrocyte-derived 20s proteosome assessed as fold maximum enhancement using Casp-L as peptide substrate by fluorescence based analysis. It is filed as cell-based. Particulars: filed as activator.
For assay [17], the target named is 26S proteasome (Homo sapiens) (UniProt Q99460+P49721+P20618+P28074+P28062+P28065+P28072+O00487+P25786+P25787+P25788+P25789+P28066+P60900+O14818+Q8TAA3+P40306+A5LHX3+P49720+P28070+Q99436+Q16186+P35998+P62191+P43686+P62333+P17980+P62195+Q13200+O43242+O00232+O00231+Q15008+P51665+Q9UNM6+P55036+P48556+P60896). The assay is described as follows: Activation of 26s proteosome (unknown origin). It counts as protein-complex assay.

In assay [18] the target is T1, 20S proteasome (Homo sapiens). The assay is described as follows: Activation of 20s proteosome (unknown origin) mediated chymotrypsin-like activity. It counts as protein-complex assay. Particulars: filed as activator.
Assay [19] shares this target. The assay is described as follows: Activation of 20s proteosome (unknown origin) mediated chymotrypsin-like activity assessed as fold maximum enhancement. It is filed as protein-complex assay. Particulars: filed as activator.

Each structure is given as a SMILES string. Where “and” joins values, the source holds several entries; their conditions need not be identical. Equal values may be shown once. Calls of active or inactive are those of the source. The calls are words filed in the database; no cut-off is given here.

Compound `O=C(Nc1ccc(N2CCOCC2)cc1)c1cc(O)c2c(c1)C(=O)c1cccc(O)c1C2=O` gave an EC200 in assay [1] of 0.2 µM. Moreover, the midpoint of the response on 20S proteasome [2], the EC50, lay at 1800 nM. Moreover, in assay [3], the fold change (FC) was 6.36. In assay [4], this compound yielded an Activity of 552%. For the same compound, the result with H9c2 [5] was Active.

`Cc1cccc(NC(=O)c2cc(O)c3c(c2)C(=O)c2cccc(O)c2C3=O)c1` had an EC200 in assay [1] of 1.67 µM. In addition, at 20S proteasome [2], the EC50 (as a rule, the concentration giving half of the maximal effect) was 2260 nM. This compound had a fold change (FC) in assay [3] of 6.5. In assay [4], this compound displayed an Activity of 567%.

In assay [1], `COc1ccc(Nc2cc(NCC(C)C)c(N)c3c2C(=O)c2ccccc2C3=O)cc1` registered an EC200 of 0.61 µM. The compound also showed a concentration giving a half-maximal response (EC50) on 20S proteasome [2] of 1570 nM. In addition, the fold change (FC) in assay [3] came to 5.03. Also, the Activity in assay [4] amounted to 360%. Moreover, the result in the assay on H9c2 [5], in the assay with H9c2 [6] and in the assay on H9c2 [7] was Active. The result in the assay with H9c2 [8] and in the assay with H9c2 [9] was inactive. The inhibition result in the assay with HEK293 is “Active”.

`CC(C)CNc1cc(NC2CC2)c2c3c(onc13)-c1ccccc1C2=O` returned an EC200 in [1] of 1.41 µM. In addition, a half-maximal response at 20S proteasome [2] (EC50) required 3300 nM. For the same compound, the fold change (FC) in [3] is 4.71. The same compound gave an Activity in [4] of 361%.

Compound `CC(C)CNc1cc(Nc2ccc(N3CCOCC3)cc2)c2c3c(onc13)-c1ccccc1C2=O` returned an EC200 in assay [1] of 0.12 µM. The same compound returned an EC50 at 20S proteasome [2] of 1330 nM. The same compound displayed a fold change (FC) in assay [3] of 5.83. In assay [4], this compound showed an Activity of 425%. Also, the result with H9c2 [10] was Active. Also, the inhibition entry in the assay with HEK293 was “Active”.

In assay [1], `COc1ccc(Nc2cc(NCC(C)C)c3noc4c3c2C(=O)c2ccccc2-4)cc1` registered an EC200 of 0.7 µM. The same compound came in with an EC50 on 20S proteasome [2] of 3020 nM. In assay [3], this compound showed a fold change (FC) of 3.54. For the same compound, in assay [4], the Activity is 276%.

For the compound `Cc1cccc(Nc2cc(NCCN3CCOCC3)c3noc4c3c2C(=O)c2ccccc2-4)c1`, the result in assay [1] was inactive. The compound also had an Activity in assay [4] of 47.9%.

As to `O=C(NCCN1CCOCC1)c1cc(O)c2c(c1)C(=O)c1cccc(O)c1C2=O`, the outcome in [1] was inactive. The compound further yielded an Activity in [4] of 68.6%.

`CCCNc1cc(Nc2cccc(C)c2)c2c3c(onc13)-c1ccccc1C2=O` returned an EC200 in assay [1] of 0.4 µM. Also, it took 4360 nM to reach a half-maximal effect at 20S proteasome [2] (EC50). Also, the fold change (FC) in assay [3] was 10.6. The compound further came in with an Activity in assay [4] of 594%.

As for `O=C1c2cccc(O)c2C(=O)c2c(O)cc(C(=O)N3CCC(c4ccccc4)CC3)cc21`, the EC200 in assay [1] came out at 1.37 µM. The EC50 at 20S proteasome [2] came out at 2720 nM. For the same compound, the fold change (FC) in assay [3] came out at 3.71. For the same compound, the Activity in [4] was determined as 233%.

With `O=C1c2cccc(O)c2C(=O)c2c(O)cc(C(=O)N3CCc4ccccc4C3)cc21`, the EC200 in [1] stood at 1.14 µM. In addition, the EC50 at 20S proteasome [2] came to 4020 nM. The same compound displayed a fold change (FC) in assay [3] of 3.79. Further, in [4], the Activity was 350%.

In the case of `O=C1c2cccc(O)c2C(=O)c2c(O)cc(C(=O)N3CCN(c4nccs4)CC3)cc21`, the EC200 in assay [1] worked out at 1.18 µM. The same compound showed a 50% effective concentration (EC50) at 20S proteasome [2] of 3570 nM. The compound further had a fold change (FC) in assay [3] of 4.07. The same compound returned an Activity in assay [4] of 453%.

In [1], `Cc1ccc(Nc2cc(NCC(C)C)c(N)c3c2C(=O)c2ccccc2C3=O)cc1` yielded an EC200 of 0.66 µM. This compound also showed an EC50 at 20S proteasome [2] of 3680 nM. Moreover, the fold change (FC) in [3] was 5.38. In assay [4], this compound gave an Activity of 377%. For the same compound, the outcome in the assay with H9c2 [10], with H9c2 [6] and with H9c2 [7] was Active. Further, the outcome in the assay with H9c2 [8] and in the assay on H9c2 [9] was inactive. For the same compound, in the assay with HEK293, the inhibition result was “Active”.

Regarding `COc1ccc(NC(=O)c2cc(O)c3c(c2)C(=O)c2cccc(O)c2C3=O)cc1`, in assay [1], the EC200 worked out at 0.32 µM. Moreover, the EC50 on 20S proteasome [2] was determined as 2050 nM. This compound also returned a fold change (FC) in [3] of 8.91. In assay [4], the Activity amounted to 696%.

As for `CN1CCN(c2ccc(NC(=O)c3cc(O)c4c(c3)C(=O)c3cccc(O)c3C4=O)cc2)CC1`, the EC200 in assay [1] was found to be 3.85 µM. Moreover, the EC50 on 20S proteasome [2] is 6120 nM. The same compound registered a fold change (FC) in [3] of 7.32. The same compound displayed an Activity in [4] of 549%.

Turning to `O=C1c2ccccc2-c2onc3c(NCN4CCCCC4)cc(NCN4CCCCC4)c1c23`, the result in assay [1] was inactive. Besides, the Activity in [4] was determined as 78.4%.

Compound `CC(C)CNC(=O)c1cc(O)c2c(c1)C(=O)c1cccc(O)c1C2=O` showed an EC200 in assay [1] of 2.15 µM. At 20S proteasome [2], this compound registered an EC50 of 2570 nM. The same compound showed a fold change (FC) in [3] of 2.23. The Activity in assay [4] was 376%.

In assay [1], `Cc1ccc(Nc2cc(NCC(C)C)c3noc4c3c2C(=O)c2ccccc2-4)cc1` came in with an EC200 of 0.72 µM. For the same compound, the EC50 at 20S proteasome [2] was found to be 3000 nM. In [3], this compound displayed a fold change (FC) of 4.8. In [4], the Activity was 359%.

Consider `Cc1cccc(Nc2cc(NCC(C)C)c3noc4c3c2C(=O)c2ccccc2-4)c1`, for which the EC200 was 0.46 µM and 0.38 µM in [1]; 0.75 µM in assay [3]; 0.93 µM in assay [12]. Further, the EC50 was 1830 nM and 850 nM at 20S proteasome [2]; 2330 nM on 20S proteasome [11]; 1900 nM on 20S proteasome [13]. The fold change (FC) in assay [3] was found to be 5.98; in [14], 6.22; in [15] it was 4.37; in assay [16], 9.77. The outcome in assay [17] was inactive. The compound also displayed an Activity in assay [4] of 472%. The outcome with H9c2 [5] was Active. Besides, the inhibition result in the assay with HEK293 is “Active”.

For `Cc1cccc(Nc2cc(NCCO)c3noc4c3c2C(=O)c2ccccc2-4)c1`, the outcome in assay [1] was inactive. This compound also had an Activity in [4] of 119%.

Regarding `CCOC(=O)[C@]1(c2ccccc2)N=C(c2ccc(OC)cc2)N(Cc2ccccc2)[C@@H]1c1ccc(NCc2ccccc2)cc1`, the EC200 was 0.91 µM in assay [1] and 1.4 µM in assay [18]. Moreover, the figures for the fold change (FC) in [3] and in [19] were 4.31 and 8.3, respectively. In addition, the Activity in assay [4] amounted to 438%.

As for `CN(CCc1ccccc1)C(=O)c1cc(O)c2c(c1)C(=O)c1cccc(O)c1C2=O`, the result in [1] was inactive. This compound showed an Activity in assay [4] of 148%.

`Cc1cccc(Nc2cc(NCCC(C)C)c3noc4c3c2C(=O)c2ccccc2-4)c1`: the EC200 in [1] came to 0.19 µM. On 20S proteasome [2], this compound yielded a concentration for a half-maximal effect (EC50) of 2090 nM. In addition, the fold change (FC) in [3] came out at 2.08. In assay [4], this compound yielded an Activity of 175%.
